Patent publication US20230203044A1, “PYRAZOLO[1,5-D][1,2,4]TRIAZINE-5(4H)-ACETAMIDES AS INHIBITORS OF THE NLRP3 INFLAMMASOME” (JANSSEN PHARMACEUTICA NV, priority 2020, published 2023)
pEC50, pIC50: −log10 of the molar value.

Assays:
NLRP3 inflammasome = experiment: PBMC assay: IL-1β in LPS-stimulated human PBMCs (MSD); assay type: cell-based; conditions: human PBMCs, 100 ng/ml LPS for 6 hrs, IL-1β in supernatant via MSD, read-out: IL1β IC50
Method in brief: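 Human PBMCs from healthy donors, Ficoll-isolated and cryopreserved, were plated at 7.5×10^4 cells/well in RPMI/10% FBS for 30 min at 37 °C. Cells were then stimulated with 100 ng/ml LPS (final) for 6 h. IL-1β and TNF in supernatants were quantified by MSD immunoassay.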

TNF = experiment: PBMC assay: TNF cytokine levels in LPS-stimulated human PBMCs (MSD); assay type: cell-based; conditions: 100 ng/ml LPS for 6 hrs, TNF in supernatant via MSD
Method in brief: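 Cryopreserved healthy-donor human PBMCs (7.5×10^4 cells/well, RPMI + 10% FBS) were preincubated with 1:3 serially diluted compounds for 30 min at 37 °C. They were then stimulated with 100 ng/ml LPS (final) for 6 h. Supernatant TNF was measured by MSD, and EC50 values were derived.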

SMILES	pIC50 (NLRP3 inflammasome)	pEC50 (TNF)
COc1cc(NC(=O)Cn2nc(C(C)C)n3nc(C4CC4)cc3c2=O)ccn1 [Final Cpd 129]	6.17	< 5.00
Cc1nccc(NC(=O)Cn2nc(C(C)C)n3nc(C4CC4)cc3c2=O)c1Cl [Final Cpd 120]	6.26	< 5.00
Cc1nn(CC(=O)NC2CC(c3ccc(O)cc3)C2)c(=O)c2cc(C3CC3)nn12 (stereo not shown) [Final Cpd 66]	5.45	< 5.00
CC(C)c1nn(CC(=O)Nc2ccc3nncn3c2)c(=O)c2c(N)c(C3CCC3)nn12 [Final Cpd 182]	7.00	< 5.00
CC(C)c1nn(CC(=O)Nc2cnc3ccnn3c2)c(=O)c2cc(C3CC3)nn12 [Final Cpd 101]	5.11	< 5.00
CC(C)c1nn(CC(=O)N[C@H]2CCC(=O)N(C)C2)c(=O)c2cc(C3CC3)nn12 [Final Cpd 31]	6.16	< 5.00
CCNc1cc2c(=O)n(CC(=O)N[C@H]3C[C@@](C)(O)C3)nc(C(C)C)n2n1 [Final Cpd 73]	6.96	< 5.00
CCc1cc2c(=O)n(CC(=O)Nc3ccc4nncn4c3)nc(C(C)C)n2n1 [Final Cpd 146]	6.68	< 5.00
CC(C)c1nn(CC(=O)NC2CCC(=O)N(CC3CC3)C2)c(=O)c2cc(C3CC3)nn12 (stereo not shown) [Final Cpd 25]	5.63	< 5.00
CC(C)c1nn(CC(=O)Nc2ccc(=O)n(CC3CC3)c2)c(=O)c2cc(C3CC3)nn12 [Final Cpd 35]	6.42	< 5.00
CC(C)c1nn(CC(=O)Nc2ccc(C3CC3)nn2)c(=O)c2cc(C3CC3)nn12 [Final Cpd 86]	< 5.00	< 5.00
COc1c(NC(=O)Cn2nc(C(C)C)n3nc(C4CC4)cc3c2=O)ccnc1C [Final Cpd 102]	6.28	< 5.00
CCC(C)c1nn(CC(=O)N[C@H]2C[C@@](C)(O)C2)c(=O)c2cc(C3CC3)nn12 (stereo partly shown) [Final Cpd 201]	< 5.00	< 5.00
CC(C)c1nn(CC(=O)N[C@@H]2CCCN(CC(F)(F)F)C2)c(=O)c2cc(C3CC3)nn12 [Final Cpd 189, (R)-2-(2-cyclopropyl-7-isopropyl-4-oxopyrazolo[1,5-d][1,2,4]triazin-5(4H)-yl)-N-(1-(2,2,2-trifluoroethyl)piperidin-3-yl)acetamide]	5.94	< 5.00
CC(C)c1nn(CC(=O)Nc2ccc(C(F)F)nn2)c(=O)c2cc(C3CC3)nn12 [Final Cpd 174]	5.17	< 5.00
CCCc1cc2c(=O)n(CC(=O)Nc3ccncn3)nc(CC)n2n1 [Final Cpd 15]	5.62	< 5.00
Cc1ccc(NC(=O)Cn2nc(C(C)C)n3nc(C4CC4)cc3c2=O)cn1 [Final Cpd 122]	6.09	< 5.00
CCN1CC[C@@H](O)[C@@H](NC(=O)Cn2nc(C(C)C)n3nc(C4CC4)cc3c2=O)C1 [Final Cpd 190, 2-(2-cyclopropyl-7-isopropyl-4-oxopyrazolo[1,5-d][1,2,4]triazin-5(4H)-yl)-N-((3S,4R)-1-ethyl-4-hydroxypiperidin-3-yl)acetamide]	7.27	< 5.00
COC(=O)C12CC(NC(=O)Cn3nc(C)n4nc(C5CC5)cc4c3=O)(C1)C2 [Final Cpd 61]	7.19	< 5.00
CC(C)c1nn(CC(=O)Nc2ccc3nccn3n2)c(=O)c2cc(C3CC3)nn12 [Final Cpd 165]	7.00	< 5.00
CC(C)c1nn(CC(=O)N[C@H]2C[C@@](C)(O)C2)c(=O)c2cc(C(O)C(F)(F)F)nn12 (stereo partly shown) [Final Cpd 158]	< 5.00	< 5.00
CCc1cc2c(=O)n(CC(=O)Nc3ccncn3)nc(C(C)C)n2n1 [Final Cpd 1, 2-(2-ethyl-7-isopropyl-4-oxo-pyrazolo[1,5-d][1,2,4]triazin-5-yl)-N-pyrimidin-4-yl-acetamide]	6.47	< 5.00
CC(C)c1cc2c(=O)n(CC(=O)Nc3ccc4nncn4c3)nc(C(C)O)n2n1 (stereo not shown) [Final Cpd 155]	5.94	< 5.00
CCc1nn(CC(=O)Nc2ccncn2)c(=O)c2cc(I)nn12 [Final Cpd 4, 2-(7-ethyl-2-iodo-4-oxo-pyrazolo[1,5-d][1,2,4]triazin-5-yl)-N-pyrimidin-4-yl-acetamide]	6.54	< 5.00

SMILES	pIC50 (NLRP3 inflammasome)	pEC50 (TNF)
CC(C)c1nn(CC(=O)N[C@H]2C[C@@](C)(O)C2)c(=O)c2cc(C(C)(F)F)nn12 [Final Cpd 161]	6.96	< 5.00
CC(C)c1nn(CC(=O)Nc2ccc3nnc(C(F)F)n3c2)c(=O)c2cc(C3CC3)nn12 [Final Cpd 92]	6.04	< 5.00
CC(C)c1nn(CC(=O)N[C@H]2C[C@@](C)(O)C2)c(=O)c2c(N)c(C3CC3)nn12 [Final Cpd 181, 2-(3-amino-2-cyclopropyl-7-isopropyl-4-oxopyrazolo[1,5-d][1,2,4]triazin-5(4H)-yl)-N-((ls,3s)-3-hydroxy-3-methylcyclobutyl)acetamide]	6.32	< 5.00
CC(C)c1nn(CC(=O)Nc2ccn3ccnc3c2)c(=O)c2cc(C3CC3)nn12 [Final Cpd 90]	6.41	< 5.00
CCc1nn(CC(=O)Nc2ccncn2)c(=O)c2cc(C)nn12 [Final Cpd 14]	5.09	< 5.00
CC(C)c1cc2c(=O)n(CC(=O)Nc3ccnnc3)nc(C(C)C)n2n1 [Final Cpd 144]	6.49	< 5.00
CC(C)c1nn(CC(=O)Nc2ccc3nc(C#N)cn3c2)c(=O)c2cc(C3CC3)nn12 [Final Cpd 99]	6.31	< 5.00
CC(C)c1cc2c(=O)n(CC(=O)N[C@H]3C[C@@](C)(O)C3)nc(C(C)C)n2n1 [Final Cpd 142]	6.85	< 5.00
CC(C)c1nn(CC(=O)Nc2cncc(F)c2)c(=O)c2cc(C3CC3)nn12 [Final Cpd 112]	6.06	< 5.00
CCNc1cc2c(=O)n(CC(=O)Nc3ccncn3)nc(C(C)C)n2n1 [Final Cpd 72]	7.27	< 5.00
COc1nccc(NC(=O)Cn2nc(C(C)C)n3nc(C4CC4)cc3c2=O)n1 [Final Cpd 132]	6.14	< 5.00
CC(C)c1cc2c(=O)n(CC(=O)Nc3ccc4nncn4c3)nc(C(C)C)n2n1 [Final Cpd 143]	7.00	< 5.00
O=C(Cn1nc(C2CC2)n2nc(C3CC3)cc2c1=O)Nc1ccc2nncn2n1 [Final Cpd 163, N-([1,2,4]triazolo[4,3-b]pyridazin-6-yl)-2-(2,7-dicyclopropyl-4-oxopyrazolo[1,5-d][1,2,4]triazin-5(4H)-yl)acetamide]	6.21	< 5.00
CC(C)c1nn(CC(=O)Nc2ccc3cn[nH]c3c2)c(=O)c2cc(C3CC3)nn12 [Final Cpd 126]	7.15	< 5.00
CC(C)c1nn(CC(=O)Nc2ccncc2Cl)c(=O)c2cc(C3CC3)nn12 [Final Cpd 133]	6.36	≤ 5.00
CC(C)c1cc2c(=O)n(CC(=O)Nc3ccc4nncn4c3)nc(N(C)C)n2n1 [Final Cpd 148]	6.49	< 5.00
CC(C)c1nn(CC(=O)Nc2ccc3cncn3c2)c(=O)c2cc(C3CC3)nn12 [Final Cpd 87]	7.20	5.21
CC(C)c1nn(CC(=O)Nc2ccc3nncn3n2)c(=O)c2cc(C3CC3)nn12 [Final Cpd 166, N-([1,2,4]triazolo[4,3-b]pyridazin-6-yl)-2-(2-cyclopropyl-7-isopropyl-4-oxopyrazolo[1,5-d][1,2,4]triazin-5(4H)-yl)acetamide]	7.36	< 5.00
Cc1nn(CC(=O)N[C@]2(Cc3ccccc3)C[C@H](O)C2)c(=O)c2cc(C3CC3)nn12 [Final Cpd 50]	< 5.00	< 5.00
CC(C)c1nn(CC(=O)NC2CCOCC2)c(=O)c2cc(C3CC3)nn12 [Final Cpd 36]	6.01	< 5.00
CC(C)c1nn(CC(=O)NC2CC(C(C)(C)O)C2)c(=O)c2cc(C3CC3)nn12 (stereo not shown) [Final Cpd 88]	5.89	< 5.00
CC(C)c1nn(CC(=O)Nc2ccnc(N(C)C)c2)c(=O)c2cc(C3CC3)nn12 [Final Cpd 123]	5.98	< 5.00
CC(C)c1nn(CC(=O)N[C@@H]2CCC(=O)N(CC3CC3)C2)c(=O)c2cc(C3CC3)nn12 [Final Cpd 26]	< 5.00	< 5.00
